In assay [1] the test system is HCV genotype 1a (H77 strain) replicon in HUH-7 cells. Nature of the assay: HCV replicon luciferase reporter assay, genotype 1a. Type of assay: cell-based. To be noted: Hepatitis C virus, 72 h, genotype 1a replicon, 3 days incubation. The source says: (§1) An HCV replicon whole cell system was established as described by Lohmann V, Korner F, Koch J, Herian U, Theilmann L, Bartenschlager R., Science 285(5424):110-3 (1999) and modified to introduce a luciferase reporter, as first described by Krieger et al (Krieger N, Lohmann V, and Bartenschlager R, J. Virol. 75(10):4614-4624 (2001)). CDNA encoding a humanized form of the Renilla luciferase gene and a linker sequence fused directly to the 3′-end of the luciferase gene were introduced into the replicon construct using an Ascl restriction site located in core, directly upstream of the neomycin marker gene. The adaptive mutation at position 1179 (serine to isoleucine) was also introduced (Blight K J, Kolykhalov, A A, Rice, C M, Science 290(5498):1972-1974). A stable cell line constitutively expressing this HCV replicon construct was generated by first linearizing plasmid DNAs with ScaI. RNA transcripts were synthesized in vitro using the T7 MegaScript transcription kit (Ambion, Austin, Tex.) according to manufacturer's directions. In vitro transcripts of the cDNA were transfected into the human hepatoma cell line, HUH-7. […] Resulting cell lines were characterized for positive and negative strand RNA production and protein production over time.
A stable HCV replicon luciferase reporter cell line representing the genotype 1a H77 strain (Yanagi M, Purcell R H, Emerson S U, et al. Transcripts from a single full-length cDNA clone of hepatitis C virus are infectious when directly transfected into the liver of a chimpanzee. Proc Natl Acad Sci USA 1997; 94(16):8738-8743) was generated as described previously for the genotype 1b(Con1) replicon luciferase cell line. The replicon construct was modified by introducing mutations were introduced into the genes encoding the NS3 helicase domain (proline replaced by leucine at position 1496) and NS5A (serine to isoleucine at position 2204) to improve replication in cell culture.
(§2) HCV replicon luciferase assays were developed to monitor the inhibitory effects of compounds described in the disclosure on HCV genotypes 1a and 1b viral replication. HUH-7 cells, constitutively expressing the HCV replicon, were grown in Dulbecco's Modified Eagle Media (DMEM) (Gibco-BRL) containing 10% Fetal calf serum (FCS) (Sigma) and 1 mg/mL G418 (Gibco-BRL). Compounds were serially diluted 3 folds in DMSO for a twenty-point titration and subsequently transferred to sterile 384-well tissue-culture treated plates (Corning cat #3571). The plates were then seeded with 50 μL of cells at a density of 3.0×10^3 cells/well in DMEM containing 4% FCS (final DMSO concentration at 0.5%). After 3 days incubation at 37° C., cells were analyzed for Renilla Luciferase activity using the EnduRen as substrate (Promega cat #E6485). The EnduRen substrate was diluted in DMEM and then added to the plates to a final concentration of 7.5 μM. The plates were incubated for 2 hrs at 37° C. and then read immediately for 30 seconds with Viewlux Imager (PerkinElmer) using a luminescence program. To assess cytotoxicity of compounds, CC50 values were generated by multiplexing the EnduRen-containing plates with Cell Titer-Blue (Promega, cat # G8082). Cell-Titer Blue (3 μL) was added to each well and incubated for 8 hrs at 37° C. The fluorescence signal from each well was read, with an excitation wavelength at 525/10 nm and an emission wavelength of 598/10 nm, using the Viewlux Imager.
(§3) The EC50 values for compounds were calculated by using a four-parameter logistic equation: y=A+((B−A)/(1+((C/x)^D))), where A and B denotes minimal and maximal % inhibition, respectively, C is the EC50, D is the hill slope and x represents compound concentration.
A general note: In antiviral work, replicon cells carry a viral genome segment that copies itself.

In assay [2] the test system is HCV genotype 1b (Con1) replicon in HUH-7 cells. The assay is described as follows: HCV replicon luciferase reporter assay, genotype 1b. To be noted: Hepatitis C virus, 72 h, genotype 1b replicon, 3 days incubation. Type of assay: cell-based.
Source text: as §1, §2, §3

Read-outs that look alike come from different tables or passages of the source.

With `CC[C@@H]1O[C@H](C)CC/C=C\[C@@H]2C[C@@]2(C(=O)NS(=O)(=O)C2(C)CC2)NC(=O)[C@@H]2C[C@@H](Oc3nccc4cc(OC)c(F)cc34)CN2C(=O)[C@H]1NC(=O)OC(C)(C)C(F)(F)F` [Compound 1001], the EC50 in assay [1] (read-out: LE_1a (EC50)) was 1.26 nM; in assay [1] (read-out: LE_1a (EC50, range)), 1.01 to 5 nM; in assay [2] (read-out: LE_1b (EC50)), 0.47 nM; in assay [2] (read-out: LE_1b (EC50, range)), 0.1 to 0.5 nM.

In the case of `CC[C@@H]1O[C@H](C)CC/C=C\[C@@H]2C[C@@]2(C(=O)NS(=O)(=O)C2(C)CC2)NC(=O)[C@@H]2C[C@@H](Oc3nc(OC)cc4cc(OC)ccc34)CN2C(=O)[C@H]1NC(=O)OC(C)(C)C(F)(F)F` [Compound 1002, 1,1,1-trifluoro-2-methylpropan-2-yl ((2R,6S,7S,9R,13aS,14aR,16aS,Z)-2-((3,6-dimethoxyisoquinolin-1-yl)oxy)-7-ethyl-9-methyl-14a-(((1-methylcyclopropyl)sulfonyl)carbamoyl)-5,16-dioxo-2,3,5,6,7,9,10,11,13a,14,14a,15,16,16a-tetradecahydro-1H-cyclopropa[i]pyrrolo[1,2-e][1,5,8]oxadiazacyclopentadecin-6-yl)carbamate], the EC50 fell in the range of 0.51 to 1 nM in assay [1] (read-out: LE_1a (EC50, range)) and 0.1 to 0.5 nM in assay [2] (read-out: LE_1b (EC50, range)).

For `CC[C@@H]1O[C@H](C)CC/C=C\[C@@H]2C[C@@]2(C(=O)NS(=O)(=O)C2(C)CC2)NC(=O)[C@@H]2C[C@@H](Oc3ncc(OC)c4ccccc34)CN2C(=O)[C@H]1NC(=O)OC(C)(C)C(F)(F)F` [Compound 1003], the EC50 was in the range of 0.51 to 1 nM in assay [1] (read-out: LE_1a (EC50, range)) and 0.1 to 0.5 nM in assay [2] (read-out: LE_1b (EC50, range)).

`CC[C@@H]1O[C@H](C)CC/C=C\[C@@H]2C[C@@]2(C(=O)NS(=O)(=O)C2CC2)NC(=O)[C@@H]2C[C@@H](Oc3ncc(OC)c4ccccc34)CN2C(=O)[C@H]1NC(=O)OC(C)(C)C(F)(F)F` [Compound 1004, 1,1,1-trifluoro-2-methylpropan-2-yl ((2R,6S,7S,9R,13aS,14aR,16aS,Z)-14a-((cyclopropylsulfonyl)carbamoyl)-7-ethyl-2-((4-methoxyisoquinolin-1-yl)oxy)-9-methyl-5,16-dioxo-2,3,5,6,7,9,10,11,13a,14,14a,15,16,16a-tetradecahydro-1H-cyclopropa[i]pyrrolo[1,2-e][1,5,8]oxadiazacyclopentadecin-6-yl)carbamate]: the EC50 is 0.51 to 1 nM in assay [1] (read-out: LE_1a (EC50, range)) and 0.1 to 0.5 nM in assay [2] (read-out: LE_1b (EC50, range)).

As to `CC[C@@H]1OCCC/C=C\[C@@H]2C[C@@]2(C(=O)NS(=O)(=O)C2(C)CC2)NC(=O)[C@@H]2C[C@@H](Oc3nccc4cc(OC)ccc34)CN2C(=O)[C@H]1NC(=O)OC(C)(C)C(F)(F)F` [Compound 1005], the EC50 lay in the range of 1.01 to 5 nM in assay [1] (read-out: LE_1a (EC50, range)) and 0.51 to 1 nM in assay [2] (read-out: LE_1b (EC50, range)).

For `CC[C@@H]1O[C@H](C)CC/C=C\[C@@H]2C[C@@]2(C(=O)NS(=O)(=O)C2(C)CC2)NC(=O)[C@@H]2C[C@@H](Oc3nccc4cc(OC)ccc34)CN2C(=O)[C@H]1NC(=O)OC(C)(C)C(F)(F)F` [Compound 1006], the EC50 in assay [1] (read-out: LE_1a (EC50, range)) lay within 1.01 to 5 nM; in assay [2] (read-out: LE_1b (EC50, range)) it was 0.1 to 0.5 nM.

As for `CC[C@@H]1O[C@H](C)CC/C=C\[C@@H]2C[C@@]2(C(=O)NS(=O)(=O)C2CC2)NC(=O)[C@@H]2C[C@@H](Oc3nccc4cc(OC)ccc34)CN2C(=O)[C@H]1NC(=O)OC(C)(C)C(F)(F)F` [Compound 1007, 1,1,1-trifluoro-2-methylpropan-2-yl ((2R,6S,7S,9R,13aS,14aR,16aS,Z)-14a-((cyclopropylsulfonyl)carbamoyl)-7-ethyl-2-((6-methoxyisoquinolin-1-yl)oxy)-9-methyl-5,16-dioxo-2,3,5,6,7,9,10,11,13a,14,14a,15,16,16a-tetradecahydro-1H-cyclopropa[i]pyrrolo[1,2-e][1,5,8]oxadiazacyclopentadecin-6-yl)carbamate], the EC50 in assay [1] (read-out: LE_1a (EC50, range)) lay in the range of 1.01 to 5 nM; in assay [2] (read-out: LE_1b (EC50, range)) it was 0.51 to 1 nM.

Take `CC[C@@H]1O[C@H](C)CC/C=C\[C@@H]2C[C@@]2(C(=O)NS(=O)(=O)C2CC2)NC(=O)[C@@H]2C[C@@H](Oc3nc(OC)cc4cc(OC)ccc34)CN2C(=O)[C@H]1NC(=O)OC(C)(C)C(F)(F)F` [Compound 1008, 1,1,1-trifluoro-2-methylpropan-2-yl ((2R,6S,7S,9R,13aS,14aR,16aS,Z)-14a-((cyclopropylsulfonyl)carbamoyl)-2-((3,6-dimethoxyisoquinolin-1-yl)oxy)-7-ethyl-9-methyl-5,16-dioxo-2,3,5,6,7,9,10,11,13a,14,14a,15,16,16a-tetradecahydro-1H-cyclopropa[i]pyrrolo[1,2-e][1,5,8]oxadiazacyclopentadecin-6-yl)carbamate]: the EC50 in assay [1] (read-out: LE_1a (EC50)) is 0.41 nM; in assay [1] (read-out: LE_1a (EC50, range)), 0.1 to 0.5 nM; in assay [2] (read-out: LE_1b (EC50)), 0.28 nM; in assay [2] (read-out: LE_1b (EC50, range)) it was 0.1 to 0.5 nM.

With `CC[C@@H]1OCCC/C=C\[C@@H]2C[C@@]2(C(=O)NS(=O)(=O)C2(C)CC2)NC(=O)[C@@H]2C[C@@H](Oc3nccc4cc(OC)c(F)cc34)CN2C(=O)[C@H]1NC(=O)OC(C)(C)C(F)(F)F` [Compound 1009], the EC50 is 1.01 to 5 nM in assay [1] (read-out: LE_1a (EC50, range)) and 1.01 to 5 nM in assay [2] (read-out: LE_1b (EC50, range)).

Turning to `CC[C@@H]1OCCC/C=C\[C@@H]2C[C@@]2(C(=O)NS(=O)(=O)C2(C)CC2)NC(=O)[C@@H]2C[C@@H](Oc3nc(OC)cc4cc(OC)ccc34)CN2C(=O)[C@H]1NC(=O)OC(C)(C)C(F)(F)F` [Compound 1010, 1,1,1-trifluoro-2-methylpropan-2-yl ((2R,6S,7S,13aS,14aR,16aS,Z)-2-((3,6-dimethoxyisoquinolin-1-yl)oxy)-7-ethyl-14a-(((1-methylcyclopropyl)sulfonyl)carbamoyl)-5,16-dioxo-2,3,5,6,7,9,10,11,13a,14,14a,15,16,16a-tetradecahydro-1H-cyclopropa[i]pyrrolo[1,2-e][1,5,8]oxadiazacyclopentadecin-6-yl)carbamate], the EC50 in assay [1] (read-out: LE_1a (EC50, range)) was in the range of 0.51 to 1 nM; in assay [2] (read-out: LE_1b (EC50, range)), 1.01 to 5 nM.

As for `CC[C@@H]1OCCC/C=C\[C@@H]2C[C@@]2(C(=O)NS(=O)(=O)C2(C)CC2)NC(=O)[C@@H]2C[C@@H](Oc3ncc(OC)c4ccccc34)CN2C(=O)[C@H]1NC(=O)OC(C)(C)C(F)(F)F` [Compound 1011], the EC50 lay within 0.51 to 1 nM in assay [1] (read-out: LE_1a (EC50, range)) and 0.51 to 1 nM in assay [2] (read-out: LE_1b (EC50, range)).

As for `CC[C@@H]1O[C@H](C)CC/C=C\[C@@H]2C[C@@]2(C(=O)NS(=O)(=O)C2(CF)CC2)NC(=O)[C@@H]2C[C@@H](Oc3nccc4cc(OC)c(F)cc34)CN2C(=O)[C@H]1NC(=O)OC(C)(C)C(F)(F)F` [Compound 1012], the EC50 fell in the range of 1.01 to 5 nM in assay [1] (read-out: LE_1a (EC50, range)) and 1.01 to 5 nM in assay [2] (read-out: LE_1b (EC50, range)).

Take `CC[C@@H]1O[C@H](C)CC/C=C\[C@@H]2C[C@@]2(C(=O)NS(=O)(=O)C2(CF)CC2)NC(=O)[C@@H]2C[C@@H](Oc3nc(OC)cc4cc(OC)ccc34)CN2C(=O)[C@H]1NC(=O)OC(C)(C)C(F)(F)F` [Compound 1013, 1,1,1-trifluoro-2-methylpropan-2-yl ((2R,6S,7S,9R,13aS,14aR,16aS,Z)-2-((3,6-dimethoxyisoquinolin-1-yl)oxy)-7-ethyl-14a-(((1-(fluoromethyl)cyclopropyl)sulfonyl)carbamoyl)-9-methyl-5,16-dioxo-2,3,5,6,7,9,10,11,13a,14,14a,15,16,16a-tetradecahydro-1H-cyclopropa[i]pyrrolo[1,2-e][1,5,8]oxadiazacyclopentadecin-6-yl)carbamate]: the EC50 in assay [1] (read-out: LE_1a (EC50, range)) was 1.01 to 5 nM; in assay [2] (read-out: LE_1b (EC50, range)), 1.01 to 5 nM.

Take `CC[C@@H]1O[C@H](C)CC/C=C\[C@@H]2C[C@@]2(C(=O)NS(=O)(=O)C2(CF)CC2)NC(=O)[C@@H]2C[C@@H](Oc3ncc(OC)c4ccccc34)CN2C(=O)[C@H]1NC(=O)OC(C)(C)C(F)(F)F` [Compound 1014]: the EC50 in assay [1] (read-out: LE_1a (EC50, range)) lay within 1.01 to 5 nM; in assay [2] (read-out: LE_1b (EC50, range)), 1.01 to 5 nM.

As a reminder, the EC50 is the midpoint of the concentration-response curve.

(Values after patent US9598433B2, “Hepatitis C virus inhibitors” (BRISTOL-MYERS SQUIBB COMPANY, priority 2012, dated 2017).)
